Results from patent publication US20210386814A1, “METHODS AND COMPOUND FOR THE TREATMENT OF MALARIA” (priority 2020, published 2021).
pIC50: −log10 of the molar value. Values after ≈ are worked out from the molar mass of the structure shown. Where two headings read alike, the source gives them in different places.

Experiments:
P. falciparum culture = conditions: cited from earlier work
gamma interferon = test: in vitro gamma interferon production; assay type: cell-based
Source text: Moreover, the increase in gamma interferon may have a far greater impact on reversing the course of HIV-1 infection. […] Therefore, further evaluation of 90I in malaria cell-lines may provide the opportunity to find new clinical uses for an established HIV antiprotease patented drug. Also, the purpose of this approach is to lower the costs and shorten the timeframe of product development.

[1] = test system: RF laboratory strain of HIV-1; test: antiviral evaluation in CEM-SS cell line against HIV-1 RF; assay type: cell-based; conditions: CEM-SS cells, HIV-1 RF strain
Protocol: The purified fraction 90I may yield a fifty percent effective concentration (EC50) of 0.020 ug/ml. At the same time, there was no discernible drug induced toxicity in this study (50% inhibitory concentration ([…]) was greater than the high-test concentration of 100 ug/ml).

[2] = biological target: P. falciparum lactate dehydrogenase (Plasmodium falciparum, UniProt Q27743); conditions: cited from earlier work
Sequence of P. falciparum lactate dehydrogenase (Q27743 whole entry): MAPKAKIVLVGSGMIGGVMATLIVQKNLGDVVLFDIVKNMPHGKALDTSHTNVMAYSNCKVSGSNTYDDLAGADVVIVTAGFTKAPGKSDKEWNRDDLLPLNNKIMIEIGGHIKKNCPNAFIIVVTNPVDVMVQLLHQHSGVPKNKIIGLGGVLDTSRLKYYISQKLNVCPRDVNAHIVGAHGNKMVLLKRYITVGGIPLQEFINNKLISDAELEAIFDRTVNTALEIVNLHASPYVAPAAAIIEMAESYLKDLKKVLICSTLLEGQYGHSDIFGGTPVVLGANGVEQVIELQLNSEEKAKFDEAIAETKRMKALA

[3] = biological target: P. falciparum aspartic protease plasmepsin II (Plasmodium falciparum, UniProt P46925); conditions: read-out: 1050, plasmepsin II; cited from earlier work
Sequence of P. falciparum aspartic protease plasmepsin II (P46925 125-453): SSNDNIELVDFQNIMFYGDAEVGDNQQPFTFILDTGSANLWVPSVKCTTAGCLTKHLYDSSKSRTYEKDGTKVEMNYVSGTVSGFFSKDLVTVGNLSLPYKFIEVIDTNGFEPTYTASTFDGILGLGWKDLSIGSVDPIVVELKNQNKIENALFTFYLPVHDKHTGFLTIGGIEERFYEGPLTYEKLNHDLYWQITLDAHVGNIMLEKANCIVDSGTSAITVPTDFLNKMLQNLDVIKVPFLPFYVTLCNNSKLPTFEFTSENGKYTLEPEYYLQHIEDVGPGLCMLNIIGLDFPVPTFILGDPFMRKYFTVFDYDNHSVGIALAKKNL

CC(C)C[C@H](NC(=O)[C@H]1O[C@@H]1C(=O)O)C(=O)NCCCCN=C(N)N (relative stereo) [E64, trans-Epoxysuccinyl-L-leucylamido(4-guanidino)butane]
effects on P. falciparum culture (P. falciparum culture): blocked parasite release

O=C(OCCOCCOC(=O)c1ccccc1)c1ccccc1 [90I, diethylene glycol dibenzoate]
production of gamma interferon (gamma interferon): increased production of gamma interferon
therapeutic index (T1=IC50/EC50) [1]: greater than 5000
EC50 ([1]; Human immunodeficiency virus 1, read-out: fifty percent effective concentration (EC50)): 0.02 µg/mL (≈ 0.0636 µM)

CC(=O)N[C@@H](CC(C)C)C(=O)N[C@@H](CC(C)C)C(=O)N[C@H](C=O)CCCNC(=N)N [Leupeptin, N-acetyl-L-leucyl-L-leucy-L-argininal]
effects on P. falciparum culture (P. falciparum culture; 10 μg/ml): All three of these effects were also seen

CCCC[C@@H](C=O)NC(=O)[C@H](CC(C)C)NC(=O)OCc1ccccc1 [calpeptin]
effects on P. falciparum culture (P. falciparum culture; 1 μM): All three of these effects were also seen

CCN(CC)CCCC(C)Nc1ccnc2cc(Cl)ccc12 (centres unmarked) [chloroquine]
inhibition of lactate dehydrogenase [2]: weak inhibitor

Cc1cccc(C)c1OCC(=O)N[C@@H](Cc1ccccc1)[C@@H](O)C[C@H](Cc1ccccc1)NC(=O)[C@H](C(C)C)N1CCCNC1=O [lopinavir]
pIC50 [3]: 5.57
